Experimental data taken from patent US5846720A, “Methods of determining chemicals that modulate expression of genes associated with cardiovascular disease” (Oncogene Science, Inc., priority 1996, dated 1998).

Legend:
hGH promoter = test: hGH promoter/luciferase reporter assay (high-throughput screen I), 532 cells; type: cell-based, rat; details: Table 2, 6 h incubation; for hGH fold inhibition relative to solvent control: transcriptional inhibitors; for hGH fold induction relative to solvent control: transcriptional activators
Text: 6. a GC rat pituitary cell line, transfected with the growth hormone reporter plasmid, designated 532, deposited under ATCC Accession No. CRL 10663.

G-CSF promoter = test: G-CSF promoter/luciferase reporter assay (high-throughput screen I), G21 cells; details: Table 2, 6 h incubation; for GCSF fold inhibition relative to solvent control: transcriptional inhibitors; for GCSF fold induction relative to solvent control: transcriptional activators
MMTV promoter = test: MMTV promoter/luciferase reporter assay (high-throughput screen I, control for specificity), M10 cells; type: cell-based, mouse; details: Table 2, 6 h incubation; for MMTV fold inhibition relative to solvent control: transcriptional inhibitors; for MMTV fold induction relative to solvent control: transcriptional activators, original high-throughput assay
Protocol: pMluci and pSV2Neo, an antibiotic resistance plasmid (84), were co-transfected into NIH/3T3 mouse fibroblast cells using the calcium phosphate precipitation method (85) with a commercially available kit (Pharmacia, Piscataway N.J.). Two days later, cells were transferred to media containing 0.4 mg/ml G418 and were grown for an additional 10-14 days. G418-resistant clones were isolated by standard methods. Once sufficient cell numbers were obtained, clones were analyzed based on several criteria: constitutive luciferase production, induction of luciferase expression by dexamethasone ([…], Sigma, St. Louis, Mo.), satisfactory attachment to microtiter plates used in the high-throughput screen (see section G) and acceptable standard deviation in multiple luciferase expression assays (see below for assay protocol). This analysis was carried out using the luciferase assay conditions described above. Of the clones which satisfied the above criteria for the high throughput screen, one clone, M10, was selected for use.

Structure (SMILES) | hGH fold inhibition relative to solvent control (hGH promoter) [fold] | GCSF fold inhibition relative to solvent control (G-CSF promoter) [fold] | MMTV fold inhibition relative to solvent control (MMTV promoter) [fold] | hGH fold induction relative to solvent control (hGH promoter) [fold] | GCSF fold induction relative to solvent control (G-CSF promoter) [fold] | MMTV fold induction relative to solvent control (MMTV promoter) [fold]
NC(=O)c1ccccc1O [Chemical 798] | 0.90 | 4.76 | 0.68 | – | – | –
Clc1ccc(Sc2cc(Cl)c(Cl)cc2Cl)cc1 [Chemical 828] | – | – | – | 1.34 | 1.47 | 2.20
N=c1ccc2nc3ccc(N)cc3sc-2c1 [Chemical 836] | – | – | – | 0.23 | 3.20 | 0.58
CC1(C)O[C@@H]2C[C@H]3[C@@H]4CCC5=CC(=O)C=C[C@]5(C)[C@@]4(F)[C@@H](O)C[C@]3(C)[C@]2(C(=O)CO)O1 [Chemical 848] | – | – | – | 1.28 | 0.75 | 2.43
CCCCCCCCCCCCCCCC(=O)OCC(COC(=O)CCCCCCCCCCCCCCC)OC(=O)CCCCCCCCCCCCCCC [Chemical 856] | – | – | – | 6.49 | 0.28 | 0.42
Nc1ccc(C=CC(=O)O)cc1 [Chemical 1234] | – | – | – | 0.51 | 4.97 | 1.03
Cc1c(C2(c3cc(Br)c(O)c(Br)c3C)OS(=O)(=O)c3ccccc32)cc(Br)c(O)c1Br [Chemical 1251] | – | – | – | 15.19 | 0.14 | 0.33
Clc1cc(Cl)cc(Br)c1 [Chemical 1255] | – | – | – | 0.43 | 6.74 | 1.09
Nc1c(Cl)ncnc1Cl [Chemical 1269] | – | – | – | 0.91 | 0.72 | 2.18
Nc1ccc2c(c1)Cc1ccccc1-2 [Chemical 1316] | – | – | – | 1.39 | 0.74 | 2.33
Nc1ccc2c(c1)C(=O)c1ccccc1-2 [Chemical 1318] | – | – | – | 0.85 | 1.13 | 2.41
Nc1ccc(S(=O)(=O)O)c2cccc(O)c12 [Chemical 1337] | – | – | – | 15.87 | 0.07 | 0.23
NCc1ccc(S(N)(=O)=O)cc1 [Chemical 1375] | – | – | – | 0.04 | 8.94 | 1.37
Cc1ccc(N)c(S(=O)(=O)O)c1 [Chemical 1376] | – | – | – | 0.04 | 6.37 | 1.32
Cc1ccc(C(=O)c2ccccc2N)cc1 [Chemical 1384] | – | – | – | 0.50 | 1.33 | 2.43
Cc1cc(N)sn1 [Chemical 1397] | – | – | – | 0.57 | 3.63 | 1.13
Nc1ccccc1SSc1ccccc1N [Chemical 1482] | – | – | – | 0.54 | 3.99 | 1.07
Nc1ccc(SSc2ccc(N)cc2)cc1 [Chemical 1483] | – | – | – | 0.38 | 4.64 | 1.09
Nc1nc(-c2ccccc2)cs1 [Chemical 1499] | – | – | – | 5.55 | 0.24 | 0.61
Nc1nc2nc[nH]c2c(=S)[nH]1 [Chemical 1521] | – | – | – | 0.73 | 3.59 | 0.92
Nc1nccs1 [Chemical 1550] | – | – | – | 5.44 | 0.04 | 0.87

Structure (SMILES) | hGH fold inhibition relative to solvent control (hGH promoter) [fold] | GCSF fold inhibition relative to solvent control (G-CSF promoter) [fold] | MMTV fold inhibition relative to solvent control (MMTV promoter) [fold] | hGH fold induction relative to solvent control (hGH promoter) [fold] | GCSF fold induction relative to solvent control (G-CSF promoter) [fold] | MMTV fold induction relative to solvent control (MMTV promoter) [fold]
NC1=NCCS1 [Chemical 1552] | – | – | – | 7.26 | 1.23 | 0.52
Nc1c(Cl)c(Cl)nc(C(=O)O)c1Cl [Chemical 1561] | – | – | – | 8.05 | 0.23 | 0.48
Brc1ccc2c3c(cccc13)CC2 [Chemical 1573] | – | – | – | 0.34 | 1.49 | 4.30
Nc1ncnc2c1nc(Br)n2[C@@H]1O[C@H](CO)[C@@H](O)[C@H]1O [Chemical 1583] | – | – | – | 0.12 | 5.82 | 0.88
Cc1ccc(P(CCP(c2ccc(C)cc2)c2ccc(C)cc2)c2ccc(C)cc2)cc1 [Chemical 1591] | 5.55 | 0.56 | 0.96 | – | – | –
CC1(C)[C@@H](C(=O)OCC(F)(F)C(F)(F)C(F)(F)C(F)(F)C(F)(F)C(F)F)CC[C@@]1(C)C(=O)OCC(F)(F)C(F)(F)C(F)(F)C(F)(F)C(F)(F)C(F)F [Chemical 1592] | – | – | – | 0.74 | 3.20 | 1.34
O=C(Nc1cccc(C2=NCCN2)c1)Nc1cccc(C2=NCCN2)c1 [Chemical 1598] | – | – | – | 5.32 | 0.72 | 1.27
O=S(=O)(O)c1ccc(-c2nnc(-c3ccnc(-c4nnc(-c5ccc(S(=O)(=O)O)cc5)c(-c5ccc(S(=O)(=O)O)cc5)n4)c3)nc2-c2ccc(S(=O)(=O)O)cc2)cc1 [Chemical 1604] | 5.00 | 0.77 | 0.97 | – | – | –
CC1(C)[C@H]2CC[C@]1(C)[C@H](O)C2 [Chemical 1635] | 9.09 | 0.71 | 0.99 | – | – | –
C(=Cc1ccccn1)c1ccccn1 [Chemical 1640] | 5.00 | 0.79 | 0.59 | – | – | –
c1ccc(-c2nccnc2-c2ccccn2)nc1 [Chemical 1641] | 5.55 | 0.83 | 0.60 | – | – | –
O=S(=O)(O)c1ccc(-c2ccnc(-c3nnc(-c4ccc(S(=O)(=O)O)cc4)c(-c4ccc(S(=O)(=O)O)cc4)n3)c2)cc1 [Chemical 1648] | 7.69 | 0.86 | 1.00 | – | – | –
COC(=O)CP(=O)(OCC(F)(F)F)OCC(F)(F)F [Chemical 1651] | 3.57 | 0.69 | 0.70 | – | – | –
O=C(O)c1cc(C(F)(F)F)ccc1C(F)(F)F [Chemical 1655] | 4.76 | 0.54 | 0.81 | – | – | –
OCC1CC2C3CC(CO)C(C3)C2C1 (stereo not drawn) [Chemical 1678] | – | – | – | 7.08 | 0.36 | 0.89
N#Cc1cccc(Br)c1 [Chemical 1703] | 10.00 | 0.76 | 0.90 | – | – | –
N#Cc1ccc(Br)cc1 [Chemical 1704] | 4.16 | 0.77 | 0.94 | – | – | –
O=C(c1ccccc1)c1ccc(Br)cc1 [Chemical 1705] | 14.28 | 0.54 | 0.62 | – | – | –
Cc1cc(=O)oc2c(CN(CC(=O)O)CC(=O)O)c(O)ccc12 [Chemical 1712] | 8.33 | 0.74 | 0.94 | – | – | –
CC1(C)[C@H]2CC[C@]1(C)C(=O)C2 [Chemical 1720] | 4.76 | 0.65 | 0.66 | – | – | –
